Experimental data published in patent US20170003275A1, “METHOD TO IDENTIFY COMPOUNDS ABLE TO BIND TO THE ROSSMANN FOLD OF C-TERMINAL-BINDING PROTEINS, IDENTIFIED COMPOUNDS AND MEDICAL USES THEREOF” (CONSIGLIO NAZIONALE DELLE RICERCHE, priority 2013, published 2017).
Read-outs that look alike come from different tables or passages of the source.

Experiments:
recombinant BARS = molecular target: T1, recombinant BARS (Rattus norvegicus, UniProt Q9Z2F5); assay: NAD competition assay ([3H]-NAD+ binding to BARS, dot blot); settings: for NAD Displac. (%): 10 μM [3H]-NAD+, molecules 0.01 to 100 μM, 2 h 37° C.; for competition for the binding of NAD to BARS (selection): 0.01 to 100 μM
T1 construct: His; made in house
Procedure: Five μg of recombinant BARS were incubated for 2 h at 37° C. in 100 μl buffer (20 mM HEPES at pH 7.4, 25 mM NaCl and 10 μM [^3H]-NAD^+ (specific activity: 1 μCi/μmol)) in the presence of a range of concentrations (from 0.01 to 100 μM) of the molecules listed in table 1. At the end of the incubation BARS was recovered by trapping it to nitrocellulose using a Dot-Blot apparatus (Bio-Rad Laboratories, UK) according to manufacturer instruction. The samples were washed three times in ice-cold HEPES buffer (20 mM, pH 7.4). The amount of radiolabelled NAD bound to BARS was measured using a BetaImager (BioSpace Lab); the total amount of BARS bound to nitrocellulose was evaluated by red ponceau staining (Sigma-Aldrich) according to manufacturer instructions. Quantitative analyses were performed using GraphPad Prism Software.
A second virtual library was performed using the whole KEGG COMPOUND Database. […] To rank the molecules according to their affinity for BARS, the inventors set up a new assay for determining the capability of the 28 candidate molecules to compete for the binding of NAD to BARS. To this purpose, radiolabeled NAD and recombinant BARS were incubated for 2 h in the presence of a range of concentrations (from 0.01 to 100 μM) of the molecules. At the end of the incubation BARS was recovered by trapping it to nitrocellulose using a dot blot apparatus, and the radiolabelled NAD bound to BARS was evaluated by measuring the radioactivity using a BetaImager (BioSpace Lab).

[1] = tested on: Zonula Occludens (ZO1), CtBP target gene; assay: Expression of CtBP target genes, Western blot of Zonula Occludens; assay type: cell-based, human; settings: HeLa; for protein levels of Zonula Occludes: 2 and 4 days, Western blot; for minimal effective concentration: minimum effective concentration, Zonula Occludens protein, read-out: CtBP target genes increase (corepressive activity inhibition) Western Blot
Procedure: At the end of the incubations part of the samples was analyzed by western blot. To this purpose, the samples were washed with ice-cold PBS and lysed in 100 μl of SDS sample buffer. The samples were then separated on 8% SDS-PAGE gels, transferred onto nitrocellulose, and subjected to Western blotting using an antibody against Zonula Occludens (anti ZO1; Cell Signaling N. Cat. 5406) and an antibody against GAPDH (AbD Serotec) as a reference. The anti ZO1 antibody was used at a 1:1000 dilution; the anti GAPDH antibody was used at an 1:100000 dilution. The nitrocellulose membranes were subjected to ECL (as described above). The freeware ImageJ software (http://imagej.nih.gov) was used for quantitative analysis.

HeLa cells = assay: Cell viability assay (Hoechst cell number); settings: for effect on cell viability: even at 100 microM; for 50% Viability: 0.01 to 100 μM
Procedure: Quantitative analyses were performed using a GraphPad Prism Software.
At the end of the incubation the cells have been fixed, stained with Hoechst to label the DNA and analysed using a fluorescence microscope for the automated images acquisition and analysis (Olympus ScaR). […] An EC50 was calculated for the remaining molecules.

[2] = Homo sapiens, 48 h, read-out: 50% Viability

| SMILES | EC50 (HeLa cells; [2]) [µM] | EC50 (HeLa cells; read-out: 50% Viability, 48 h, 0.01 to 100 μM) [µM] | NAD Displac. (%) (recombinant BARS) | competition for the binding of NAD to BARS (selection) (recombinant BARS) | protein levels of Zonula Occludes [1] | minimal effective concentration ([1]; Homo sapiens) [µM] | effect on cell viability (HeLa cells; 48 h) | 50% Viability (HeLa cells; 48 h) | minimal effective concentration [1] [µM] |
| --- | --- | --- | --- | --- | --- | --- | --- | --- | --- |
| CC(=O)CC(c1ccccc1)c1c(O)c2ccccc2oc1=O (stereo not drawn) [C1, 4-Hydroxy-3-(3-oxo-1-phenylbutyl)-2H-1-benzopyran-2-one] | > 100 |  | 15 | best competitors | able to increase | 100 | did not affect (or had minor effects) |  |  |
| C[C@H]1[C@H](NC(=O)C(=NOC(C)(C)C(=O)O)c2csc(N)n2)C(=O)N1S(=O)(=O)O (stereo in doubt) [C28, 2-[(Z)-[1-(2-amino-1,3-thiazol-4-yl)-2-[[(2S,3S)-2-methyl-4-oxo-1-sulfoazetidin-3-yl]amino]-2-oxoethylidene]amino]oxy-2-methylpropanoic acid] |  |  | 15 |  | able to increase | 1 | did not affect (or had minor effects) |  |  |
| O=C(O)Cc1nn(Cc2nc3cc(C(F)(F)F)ccc3s2)c(=O)c2ccccc12 [C18, 2-[4-Oxo-3-[5-(trifluoromethyl)benzothiazol-2-ylmethyl]-3,4-dihydrophthalazin-1-yl]acetic acid] |  |  |  |  |  |  | did not affect (or had minor effects) | Little |  |
| O=C1OC(c2c(O)c3ccccc3oc2=O)c2ccccc21 (stereo not drawn) [C14, 4-hydroxy-3-(3-oxo-1,3-dihydroisobenzofuran-1-yl)-2H-chromen-2-one] | 10 |  |  |  |  |  |  |  |  |
| Cc1c(Cc2c(Cl)cccc2Cl)c(=O)oc2cc(OCC(=O)OCC(=O)c3ccc(Cl)cc3)ccc12 [C12, 2-(4-chlorophenyl)-2-oxoethyl 2-{[3-(2,6-dichlorobenzyl)-4-methyl-2-oxo-2H-chromen-7-yl]oxy}acetate] |  |  | 23 | best competitors |  |  | did not affect (or had minor effects) | Little |  |
| NS(=O)(=O)Oc1ccc2c3c(c(=O)oc2c1)CCCCC3 [C3, Sulfamic acid 6-oxo-6,7,8,9,10,11-hexahydrocyclohepta[c]-1-benzopyran-3-yl ester] | 10 |  |  |  |  |  |  |  |  |
| COc1cc(CNC(=O)CCCC/C=C/C(C)C)ccc1O [C6, N-(4-Hydroxy-3-methoxybenzyl)-8-methyl-6(E)-nonenamide 8-Methyl-N-vanillyl-trans-6-nonenamide] | > 100 |  | 20 | best competitors |  |  | did not affect (or had minor effects) |  |  |
| NC(=O)[C@@H]1CCCN1C(=O)[C@H](Cc1cnc[nH]1)NC(=O)[C@@H]1CCC(=O)N1 [C21, (2S)-N-[(2S)-1-[(2S)-2-carbamoylpyrrolidin-1-yl]-3-(1H-imidazol-5-yl)-1-oxopropan-2-yl]-5-oxopyrrolidine-2-carboxamide] | > 100 |  |  |  |  |  | did not affect (or had minor effects) |  |  |
| COc1ccc(-c2coc3cc(O[C@@H]4O[C@H](CO)[C@@H](O)[C@H](O)[C@H]4O)ccc3c2=O)cc1 [C15, 3-(4-methoxyphenyl)-7-{[(2S,3R,4S,5S,6R)-3,4,5-trihydroxy-6-(hydroxymethyl)oxan-2-yl]oxy}-4H-chromen-4-one] |  |  |  |  | able to increase | 5 | did not affect (or had minor effects) | Little |  |
| C#C[C@]1(O)CC[C@H]2[C@@H]3CCc4cc(OC5CCCC5)ccc4[C@H]3CC[C@@]21C [C19, 17alpha-Ethynylestradiol 3-cyclopentyl ether] | 1 |  |  |  |  |  |  |  |  |
| CCCCOc1ccc(C2=N/C(=C\c3cc(OC)c(OC)cc3OC)C(=O)O2)cc1 [C10, (4Z)-2-(4-butoxyphenyl)-4-[(2,4,5-trimethoxyphenyl)methylidene]-4,5-dihydro-1,3-oxazol-5-one] |  |  | 30 | best competitors |  |  | did not affect (or had minor effects) | Little |  |
| CC(=O)CC(c1ccc(Cl)cc1)c1c(O)c2ccccc2oc1=O (stereo not drawn) [C4, 3-[1-(4-chlorophenyl)-3-oxobutyl]-4-hydroxychromen-2-one] | > 100 |  | 20 | best competitors | able to increase | 10 | did not affect (or had minor effects) |  |  |

The next lines start with results.

| EC50 (HeLa cells; [2]) [µM] | EC50 (HeLa cells; read-out: 50% Viability, 48 h, 0.01 to 100 μM) [µM] | SMILES | NAD Displac. (%) (recombinant BARS) | competition for the binding of NAD to BARS (selection) (recombinant BARS) | protein levels of Zonula Occludes [1] | minimal effective concentration ([1]; Homo sapiens) [µM] | effect on cell viability (HeLa cells; 48 h) | 50% Viability (HeLa cells; 48 h) | minimal effective concentration [1] [µM] |
| --- | --- | --- | --- | --- | --- | --- | --- | --- | --- |
| > 100 |  | CC(=O)CC(c1ccc([N+](=O)[O-])cc1)c1c(O)c2ccccc2oc1=O (stereo not drawn) [C5, 4-Hydroxy-3-[1-(4-nitrophenyl)-3-oxobutyl]-2H-1-benzopyran-2-one] |  |  |  |  | did not affect (or had minor effects) |  |  |
|  | > 100 | CN1CCc2c(sc(/N=C/c3cccs3)c2C(N)=O)C1 [C9, 6-methyl-2-[(E)-(thiophen-2-ylmethylidene)amino]-4H,5H,6H,7H-thieno[2,3-c]pyridine-3-carboxamide] |  |  | able to increase |  | did not affect (or had minor effects) |  | 10 |
| > 100 |  | COc1cc(C2Oc3c(O)cc(C4Oc5cc(O)cc(O)c5C(=O)C4O)cc3C2CO)ccc1O (stereo not drawn) [C17, 3beta,5,7-Trihydroxy-2alpha-[7-hydroxy-2beta-(4-hydroxy-3-methoxyphenyl)-3alpha-(hydroxymethyl)-2,3-dihydrobenzofuran-5-yl]-2,3-dihydro-4H-benzo[b]pyran-4-one] |  |  |  |  | did not affect (or had minor effects) |  |  |
| > 100 |  | O=P(O)(O)C(O)(Cc1cccnc1)P(=O)(O)O [C26, [1-hydroxy-1-phosphono-2-(pyridin-3-yl)ethyl]phosphonic acid] | 30 | best competitors | able to increase | 1 | did not affect (or had minor effects) |  |  |
| > 100 |  | O=C1C2C3c4ccccc4C(c4ccccc43)C2C(=O)N1C(CO)(CO)CO [C8, (9R,10S,11S,15R)-13-(1,3-dihydroxy-2-(hydroxymethyl)propan-2-yl)-10,11-dihydro-9H-9,10-[3,4]epipyrroloanthracene-12,14(13H,15H) dione] |  |  | able to increase | 10 | did not affect (or had minor effects) |  |  |
| > 100 |  | O=C(CCc1ccc(O)cc1)c1c(O)cc(O)cc1O[C@@H]1O[C@H](CO)[C@@H](O)[C@H](O)[C@H]1O [C16, 1-(2,4-dihydroxy-6-{[(2S,3R,4S,5S,6R)-3,4,5-trihydroxy-6-(hydroxymethyl)oxan-2-yl]oxy}phenyl)-3-(4-hydroxyphenyl)propan-1-one] |  |  |  |  | did not affect (or had minor effects) |  |  |
| > 100 |  | NCc1ccccc1CC(=O)N[C@@H]1C(=O)N2C(C(=O)O)=C(CSc3nnnn3CC(=O)O)CS[C@H]12 [C29, (6R,7R)-7-[2-[2-(Aminomethyl)phenyl]acetamido]-3-[1-(carboxymethyl)-1H-tetrazol-5-ylsulfanylmethyl]-8-oxo-5-thia-1-azabicyclo[4.2.0]-2-octene-2-carboxylic acid] | 35 | best competitors |  |  | did not affect (or had minor effects) |  |  |
